In patent US7098012B1, “DNA demethylase, therapeutic and diagnostic uses thereof” (McGill University, priority 1997, dated 2006):
“Also recorded” adds a separate entry of the source.

Key:
DNA dMTase [1] = assay: Demethylation of [mdC32pdG]n substrate (conversion of mdCMP to dCMP) with additives or pretreatment; format: biochemical, human; conditions: 500 μM, initial rate conditions, FIG. 2a
Procedure: (A) To assay the conversion of methyl-dCMP (mdCMP) to dCMP we used a previously described method (Szyf et al., 1995). Briefly, α^32P labeled, fully methylated poly[mdC^32PdG]n substrate was prepared as follows. One hundred ng of a double-stranded fully methylated (mdCpdG) oligomer (Pharmacia) were denatured by boiling, which was followed by partial annealing at room temperature. The complementary strand was extended with Klenow fragment (Boehringer Mannheim) using methyl-5-dCTP (mdCTP, 0.1 mM) (Boehringer Mannheim) and […] (100 μCi, 3000 Ci/mmol), and the unincorporated nucleotides were removed by chromatography through a NAP-5 column (Pharmacia). The NAP-5 chromatography was repeated to exclude minor contamination with unincorporated nucleotides. As a control a non-methylated poly[dC^32pdG]n substrate was similarly prepared except that a nonmethylated dCpdG oligomer served as a template and dCTP was used in the extension reaction. The column fractions (30 μl), described in the experimental procedures were incubated with 1 ng of poly[mdC^32pdG]n substrate for 1 hour at 37° C. in a buffer L containing 25% glycerol (v/v) and 5 mM EDTA. […] The digestion products were loaded onto a thin layer chromatography plate (TLC) (Kodak, 13255 Cellulose), separated in a medium containing, 132 ml Isobutyric acid:40 ml water:4 ml ammonia solution, autoradiographed and the intensity of the different spots was determined using a phosphorimager (Fuji, BAS 2000). ^32P labeled substrates and tritium labeled substrates were phosphoimaged using BAS 2000 plate and BAS-TR2040 phosphorimager plate respectively. (B) The second method determined removal of methylated residues from methylated DNA by measuring disappearance of ^3H—CH3 or ^14C—CH3 from the reaction mixture. […] The number of methyl groups that were removed from the DNA by the different fractions was determined by subtracting the remaining counts in each of the fractions from the counts remaining in the control. […]

DNA dMTase [2] = biological target: DNA dMTase (Homo sapiens, UniProt Q9UBB5); assay: Volatilization of radioactive methyl residues assay; format: biochemical; conditions: imidazole 1 μM to 10 mM; FIG. 16
Sequence of DNA dMTase (Homo sapiens, UniProt Q9UBB5) (Q9UBB5 whole entry): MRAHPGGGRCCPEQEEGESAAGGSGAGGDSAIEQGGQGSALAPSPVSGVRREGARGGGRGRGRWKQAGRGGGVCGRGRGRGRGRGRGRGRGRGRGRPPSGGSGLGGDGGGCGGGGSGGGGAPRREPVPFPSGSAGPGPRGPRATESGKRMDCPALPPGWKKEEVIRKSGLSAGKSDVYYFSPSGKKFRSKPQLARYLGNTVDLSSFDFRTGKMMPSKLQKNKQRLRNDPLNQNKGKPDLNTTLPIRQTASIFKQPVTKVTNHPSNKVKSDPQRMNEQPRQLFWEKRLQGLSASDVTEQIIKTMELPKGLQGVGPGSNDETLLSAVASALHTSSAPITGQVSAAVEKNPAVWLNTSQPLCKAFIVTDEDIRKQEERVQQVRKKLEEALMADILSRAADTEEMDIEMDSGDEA

Row | inhibition of demethylation of the [mdC32pdG]n substrate (DNA dMTase [1]; listed as methyl dCTP) | inhibition of DNA dMTase activity (DNA dMTase [2]) | Compound | inhibition of demethylation of the [mdC32pdG]n substrate (DNA dMTase [1])
1 | not affected |  | Cc1cn([C@H]2C[C@H](O)[C@@H](COP(=O)(O)OP(=O)(O)OP(=O)(O)O)O2)c(=O)nc1N [methyl-dCTP, methyl-5-dCTP] | nor is it inhibited
2 |  |  | Nc1ccn([C@H]2CC[C@@H](COP(=O)(O)OP(=O)(O)OP(=O)(O)O)O2)c(=O)n1 [ddCTP] | insensitive; also recorded: does not inhibit
3 |  | dose dependent inhibition | c1c[nH]cn1 [imidazole] | 
